# Measurements reported in ChEMBL document CHEMBL1201862, “PubChem BioAssay data set” (2004).
# Activity calls are given as the source filed them.
# Assays:
# [1] = target: Glycogen synthase kinase-3 alpha (Homo sapiens, UniProt P49840); assay: Inhibition of Human GSK-3 alpha Activity Measured in Biochemical System Using Microfluidics - 2063-06_Inhibitor_Dose_DryPowder_Activity. [Related pubchem assays (depositor defined):AID2709]
# [2] = target: Glycogen synthase kinase-3 beta (Homo sapiens, UniProt P49841); assay: Inhibition of Human GSK-3 beta Activity Measured in Biochemical System Using Microfluidics - 2063-05_Inhibitor_Dose_DryPowder_Activity. [Related pubchem assays (depositor defined):AID2709]
# Chain of Glycogen synthase kinase-3 beta (P49841 whole entry): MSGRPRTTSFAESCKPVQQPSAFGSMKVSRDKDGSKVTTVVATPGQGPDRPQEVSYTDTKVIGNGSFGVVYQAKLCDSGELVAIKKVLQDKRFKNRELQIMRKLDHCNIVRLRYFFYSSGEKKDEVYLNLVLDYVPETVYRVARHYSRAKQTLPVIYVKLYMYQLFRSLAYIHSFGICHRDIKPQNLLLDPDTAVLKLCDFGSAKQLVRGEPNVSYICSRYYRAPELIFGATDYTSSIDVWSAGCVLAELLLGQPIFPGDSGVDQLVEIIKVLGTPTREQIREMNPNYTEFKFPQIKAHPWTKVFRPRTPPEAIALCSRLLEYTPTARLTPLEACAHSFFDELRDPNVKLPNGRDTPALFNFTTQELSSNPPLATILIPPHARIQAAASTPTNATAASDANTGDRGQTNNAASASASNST
# [3] = target: T1, Beta-adrenergic receptor kinase 1 (Homo sapiens, UniProt P25098); assay: aptamer displacement from bead-bound GRK2 – biochemical, cherry pick 1, bead flow cytometry, dose response (AID 504500)
# T1 sequence (P25098 whole entry): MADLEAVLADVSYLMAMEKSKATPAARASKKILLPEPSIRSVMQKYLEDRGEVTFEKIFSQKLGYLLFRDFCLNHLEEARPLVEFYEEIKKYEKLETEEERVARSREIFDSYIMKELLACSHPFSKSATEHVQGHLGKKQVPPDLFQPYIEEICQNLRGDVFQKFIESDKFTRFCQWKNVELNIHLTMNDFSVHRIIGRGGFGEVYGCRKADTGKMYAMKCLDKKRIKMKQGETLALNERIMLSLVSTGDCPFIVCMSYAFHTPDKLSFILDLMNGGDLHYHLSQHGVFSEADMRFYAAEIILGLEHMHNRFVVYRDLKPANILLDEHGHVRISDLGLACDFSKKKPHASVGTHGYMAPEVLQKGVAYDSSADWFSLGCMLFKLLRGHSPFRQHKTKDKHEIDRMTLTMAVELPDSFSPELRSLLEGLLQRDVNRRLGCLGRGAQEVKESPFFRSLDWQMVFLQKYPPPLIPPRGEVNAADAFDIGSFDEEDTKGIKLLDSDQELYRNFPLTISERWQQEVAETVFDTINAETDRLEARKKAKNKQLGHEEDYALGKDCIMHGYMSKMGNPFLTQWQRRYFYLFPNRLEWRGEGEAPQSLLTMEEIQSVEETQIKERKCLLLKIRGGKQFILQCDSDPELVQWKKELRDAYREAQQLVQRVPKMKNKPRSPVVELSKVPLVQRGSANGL
# [4] = target: DNA (cytosine-5)-methyltransferase 1 (Homo sapiens, UniProt P26358); assay: DNMT1 methyltransferase inhibitors, confirmation, biochemical, fluorescent molecular beacon (AID 602386); type: functional
# Chain of DNA (cytosine-5)-methyltransferase 1 (P26358 whole entry): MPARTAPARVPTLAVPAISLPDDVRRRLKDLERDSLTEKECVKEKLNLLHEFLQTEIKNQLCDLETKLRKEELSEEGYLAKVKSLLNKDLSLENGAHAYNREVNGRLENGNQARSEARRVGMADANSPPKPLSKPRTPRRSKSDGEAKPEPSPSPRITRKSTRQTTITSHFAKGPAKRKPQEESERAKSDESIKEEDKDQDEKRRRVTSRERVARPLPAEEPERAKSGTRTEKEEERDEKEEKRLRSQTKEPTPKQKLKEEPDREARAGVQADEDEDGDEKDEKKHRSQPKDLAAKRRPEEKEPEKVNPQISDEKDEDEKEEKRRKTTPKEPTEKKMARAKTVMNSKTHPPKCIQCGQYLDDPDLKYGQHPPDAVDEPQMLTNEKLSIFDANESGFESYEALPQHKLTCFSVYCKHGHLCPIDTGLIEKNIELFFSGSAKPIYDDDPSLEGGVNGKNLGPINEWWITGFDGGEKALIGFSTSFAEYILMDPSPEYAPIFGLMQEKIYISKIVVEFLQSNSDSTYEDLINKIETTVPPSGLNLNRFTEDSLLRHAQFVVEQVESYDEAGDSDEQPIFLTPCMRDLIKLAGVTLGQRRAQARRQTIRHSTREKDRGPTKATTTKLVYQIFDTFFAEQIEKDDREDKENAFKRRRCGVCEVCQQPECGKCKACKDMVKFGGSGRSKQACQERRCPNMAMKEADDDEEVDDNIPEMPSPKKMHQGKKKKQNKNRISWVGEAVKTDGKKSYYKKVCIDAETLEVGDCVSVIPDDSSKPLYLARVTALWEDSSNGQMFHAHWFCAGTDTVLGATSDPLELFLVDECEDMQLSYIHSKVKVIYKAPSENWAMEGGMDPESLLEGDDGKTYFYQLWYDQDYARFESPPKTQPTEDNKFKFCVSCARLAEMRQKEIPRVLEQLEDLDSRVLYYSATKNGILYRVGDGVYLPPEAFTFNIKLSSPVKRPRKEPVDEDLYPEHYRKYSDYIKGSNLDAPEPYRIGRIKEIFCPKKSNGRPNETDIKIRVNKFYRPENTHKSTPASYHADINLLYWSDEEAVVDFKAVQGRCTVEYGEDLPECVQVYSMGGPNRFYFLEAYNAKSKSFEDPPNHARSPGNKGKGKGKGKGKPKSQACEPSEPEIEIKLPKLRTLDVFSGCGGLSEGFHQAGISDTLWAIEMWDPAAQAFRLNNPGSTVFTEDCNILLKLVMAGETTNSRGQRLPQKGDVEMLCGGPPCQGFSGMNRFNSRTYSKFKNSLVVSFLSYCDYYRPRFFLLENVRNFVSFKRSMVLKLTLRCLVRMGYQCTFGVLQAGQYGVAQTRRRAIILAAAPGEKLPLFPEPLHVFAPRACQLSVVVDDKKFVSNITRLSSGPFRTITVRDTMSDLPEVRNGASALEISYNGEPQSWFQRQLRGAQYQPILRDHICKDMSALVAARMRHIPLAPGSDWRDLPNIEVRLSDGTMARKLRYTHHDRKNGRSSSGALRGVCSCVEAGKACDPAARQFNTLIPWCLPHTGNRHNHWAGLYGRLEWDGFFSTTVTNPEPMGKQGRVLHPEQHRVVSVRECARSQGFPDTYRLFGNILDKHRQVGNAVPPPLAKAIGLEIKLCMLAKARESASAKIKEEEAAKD
# [5] = target: T1, Beta-adrenergic receptor kinase 1; assay: GRK2 inhibitors displacing RNA aptamer, dose response, biochemical, flow cytometry beads, FAM-aptamer, powder set 1 (AID 588720)
# [6] = target: T2, Carboxy-terminal domain RNA polymerase II polypeptide A small phosphatase 1 (Homo sapiens, UniProt Q9GZU7); assay: inhibitors of CTDSP1, concentration-response testing, biochemical assay, absorbance-based, actives from ultra-high-throughput screening (AID 540297); type: functional
# T2 sequence (Q9GZU7 whole entry): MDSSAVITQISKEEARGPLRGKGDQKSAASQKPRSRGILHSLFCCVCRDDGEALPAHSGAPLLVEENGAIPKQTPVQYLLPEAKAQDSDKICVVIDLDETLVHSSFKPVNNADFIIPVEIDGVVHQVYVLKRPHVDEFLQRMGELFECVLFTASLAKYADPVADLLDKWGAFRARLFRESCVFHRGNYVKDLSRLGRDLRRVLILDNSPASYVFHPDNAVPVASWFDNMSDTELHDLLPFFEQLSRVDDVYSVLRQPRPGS
# [7] = test system: CHO; assay: cytotoxicity in TLR9-MyD88 CHO cells, dose response, cytotoxicity control for TLR9-MyD88 binding inhibitor project, cell-based, luminescence (AID 588339); type: functional, hamster; conditions: Cricetulus griseus;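 note: CHO cells stably coexpressing TLR9 and MyD88 fusions from primary screen; compound exposure lasted 48 hours before viability readout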
# [8] = test system: INS1; assay: protection from cytokine-driven beta-cell apoptosis, dose response, JC-1 fluorescence, INS-1E, dry powder, set 2 (AID 488867); type: functional, cell-based; conditions: Rattus norvegicus
# [9] = inhibitors of cytokine-induced nitrite release, dose response, cell-based, Griess absorbance, INS-1E, dry powder, set 3 (AID 488870); type: functional; conditions: Rattus norvegicus
# [10] = test system: INS1; assay: protection of INS-1E cells from cytokine death, dose response, ATP luminescence, dry powder (AID 488844); type: functional, cell-based; conditions: Rattus norvegicus
# [11] = test system: INS1; assay: inhibitors of cytokine-induced nitrite release, dose response, cell-based, Griess absorbance, INS-1E, dry powder, set 2 (AID 488868); type: functional; conditions: Rattus norvegicus
# [12] = target: DNA topoisomerase (Yersinia pestis, UniProt A0A2S9PM60); assay: Y. pestis Topo-I inhibitors, cleavage product readout, dose response, biochemical, cherry-pick (AID 588525)
# Chain of DNA topoisomerase (A0A2S9PM60 whole entry): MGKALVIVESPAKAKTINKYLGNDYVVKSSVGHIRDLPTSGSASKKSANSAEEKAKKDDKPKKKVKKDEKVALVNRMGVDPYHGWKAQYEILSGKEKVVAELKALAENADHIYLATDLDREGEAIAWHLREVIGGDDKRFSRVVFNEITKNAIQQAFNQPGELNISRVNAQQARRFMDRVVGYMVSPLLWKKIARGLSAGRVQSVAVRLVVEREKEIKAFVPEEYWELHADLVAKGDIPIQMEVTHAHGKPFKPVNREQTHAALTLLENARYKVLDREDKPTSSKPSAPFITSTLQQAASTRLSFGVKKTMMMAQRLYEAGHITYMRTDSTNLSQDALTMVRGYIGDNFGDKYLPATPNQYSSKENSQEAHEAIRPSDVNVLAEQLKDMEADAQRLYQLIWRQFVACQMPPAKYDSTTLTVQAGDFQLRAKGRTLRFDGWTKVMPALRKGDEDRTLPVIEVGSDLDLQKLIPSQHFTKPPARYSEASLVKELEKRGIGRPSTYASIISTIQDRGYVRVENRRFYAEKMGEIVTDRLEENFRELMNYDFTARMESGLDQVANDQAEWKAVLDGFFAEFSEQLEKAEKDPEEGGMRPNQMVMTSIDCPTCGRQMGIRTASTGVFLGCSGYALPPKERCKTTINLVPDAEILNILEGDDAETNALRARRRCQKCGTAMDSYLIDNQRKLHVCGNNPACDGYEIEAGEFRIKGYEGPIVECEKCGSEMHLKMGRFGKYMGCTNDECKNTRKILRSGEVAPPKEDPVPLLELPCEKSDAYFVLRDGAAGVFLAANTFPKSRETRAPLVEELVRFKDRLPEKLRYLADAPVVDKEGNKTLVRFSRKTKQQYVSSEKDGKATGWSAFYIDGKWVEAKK
# [13] = target: T3, Sentrin-specific protease 8 (Homo sapiens, UniProt Q96LD8); assay: SENP8 protease inhibitors, SAR follow-up, biochemical, luminescence, set 2 (AID 588601); type: functional
# T3 sequence (Q96LD8 whole entry): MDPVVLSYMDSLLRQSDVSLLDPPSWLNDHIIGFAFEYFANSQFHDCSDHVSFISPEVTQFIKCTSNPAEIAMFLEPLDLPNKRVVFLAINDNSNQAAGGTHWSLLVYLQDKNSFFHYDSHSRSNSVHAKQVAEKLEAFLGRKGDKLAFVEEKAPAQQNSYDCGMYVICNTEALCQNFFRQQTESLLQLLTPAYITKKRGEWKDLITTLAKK
# [14] = target: T4, Sentrin-specific protease 7 (Homo sapiens, UniProt Q9BQF6); assay: SENP7 protease inhibitors, SAR follow-up, biochemical, luminescence (AID 504497); type: functional
# T4 sequence (Q9BQF6 whole entry): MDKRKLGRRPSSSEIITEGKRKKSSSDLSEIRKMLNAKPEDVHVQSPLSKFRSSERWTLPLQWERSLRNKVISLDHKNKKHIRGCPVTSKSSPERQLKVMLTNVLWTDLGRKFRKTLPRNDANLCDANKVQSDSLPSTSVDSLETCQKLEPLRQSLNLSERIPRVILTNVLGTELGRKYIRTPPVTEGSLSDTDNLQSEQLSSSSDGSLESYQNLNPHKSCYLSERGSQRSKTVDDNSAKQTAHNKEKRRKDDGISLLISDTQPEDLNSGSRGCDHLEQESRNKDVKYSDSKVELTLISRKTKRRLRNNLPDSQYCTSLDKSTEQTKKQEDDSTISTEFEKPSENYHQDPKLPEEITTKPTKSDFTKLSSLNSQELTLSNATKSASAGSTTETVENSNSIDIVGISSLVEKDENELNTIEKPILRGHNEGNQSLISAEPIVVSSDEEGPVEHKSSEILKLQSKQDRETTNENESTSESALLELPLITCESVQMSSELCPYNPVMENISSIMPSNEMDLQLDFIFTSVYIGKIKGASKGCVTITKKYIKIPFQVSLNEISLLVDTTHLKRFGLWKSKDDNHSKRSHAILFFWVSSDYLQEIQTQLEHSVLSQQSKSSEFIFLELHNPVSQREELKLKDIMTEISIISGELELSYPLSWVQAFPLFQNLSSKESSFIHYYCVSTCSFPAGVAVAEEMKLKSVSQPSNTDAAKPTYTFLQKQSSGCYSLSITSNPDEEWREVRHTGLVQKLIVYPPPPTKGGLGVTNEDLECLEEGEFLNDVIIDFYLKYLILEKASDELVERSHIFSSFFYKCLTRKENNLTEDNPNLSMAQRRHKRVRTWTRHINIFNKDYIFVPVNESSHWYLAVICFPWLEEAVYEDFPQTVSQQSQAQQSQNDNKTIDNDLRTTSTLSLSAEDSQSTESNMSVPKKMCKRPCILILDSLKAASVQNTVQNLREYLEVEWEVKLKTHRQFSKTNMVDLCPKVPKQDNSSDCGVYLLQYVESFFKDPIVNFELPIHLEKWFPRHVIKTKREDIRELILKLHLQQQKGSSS
# [15] = target: T5, Sentrin-specific protease 6 (Homo sapiens, UniProt Q9GZR1); assay: SAR Analysis of small molecule inhibitors of Sentrin-specific protease 6 (SENP6) using a Luminescent assay. [Related pubchem assays (depositor defined):AID2582, AID2599]; type: functional
# T5 sequence (Q9GZR1 whole entry): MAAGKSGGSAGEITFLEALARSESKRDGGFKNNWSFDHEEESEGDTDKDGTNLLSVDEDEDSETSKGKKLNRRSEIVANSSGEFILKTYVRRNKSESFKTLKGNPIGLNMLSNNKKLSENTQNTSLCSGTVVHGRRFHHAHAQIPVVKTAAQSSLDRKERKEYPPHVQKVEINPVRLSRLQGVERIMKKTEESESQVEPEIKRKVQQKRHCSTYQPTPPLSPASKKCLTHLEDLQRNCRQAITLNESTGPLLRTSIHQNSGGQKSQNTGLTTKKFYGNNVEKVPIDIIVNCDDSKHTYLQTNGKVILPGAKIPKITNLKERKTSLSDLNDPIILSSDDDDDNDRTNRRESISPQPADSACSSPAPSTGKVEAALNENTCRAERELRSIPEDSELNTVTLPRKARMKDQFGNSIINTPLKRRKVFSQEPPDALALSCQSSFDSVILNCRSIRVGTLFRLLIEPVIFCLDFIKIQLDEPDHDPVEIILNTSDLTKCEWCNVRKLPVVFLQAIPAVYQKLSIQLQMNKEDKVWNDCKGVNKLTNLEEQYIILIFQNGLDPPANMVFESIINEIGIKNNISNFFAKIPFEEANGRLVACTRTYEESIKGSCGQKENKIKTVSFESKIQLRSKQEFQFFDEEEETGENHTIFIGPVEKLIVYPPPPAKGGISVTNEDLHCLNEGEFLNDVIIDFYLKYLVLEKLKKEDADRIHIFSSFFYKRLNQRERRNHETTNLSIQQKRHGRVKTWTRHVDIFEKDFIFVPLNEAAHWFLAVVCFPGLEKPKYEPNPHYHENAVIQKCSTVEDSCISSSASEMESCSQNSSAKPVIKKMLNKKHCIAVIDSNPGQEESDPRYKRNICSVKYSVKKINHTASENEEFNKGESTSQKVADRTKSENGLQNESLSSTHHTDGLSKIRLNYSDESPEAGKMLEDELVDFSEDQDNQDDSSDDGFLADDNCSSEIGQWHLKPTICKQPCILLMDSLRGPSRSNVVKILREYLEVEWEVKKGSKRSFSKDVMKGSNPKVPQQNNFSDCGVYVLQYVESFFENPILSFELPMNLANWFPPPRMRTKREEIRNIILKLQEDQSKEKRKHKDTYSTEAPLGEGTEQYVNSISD
# [16] = target: T6, Caspase-3 (Homo sapiens, UniProt P42574); assay: SAR Analysis of small molecule inhibitors of Sentrin-specific proteases (SENPs) using a Caspase-3 Selectivity assay. [Related pubchem assays (depositor defined):AID2540, AID2599, AID434973, AID489001]; type: functional
# T6 sequence (P42574 whole entry): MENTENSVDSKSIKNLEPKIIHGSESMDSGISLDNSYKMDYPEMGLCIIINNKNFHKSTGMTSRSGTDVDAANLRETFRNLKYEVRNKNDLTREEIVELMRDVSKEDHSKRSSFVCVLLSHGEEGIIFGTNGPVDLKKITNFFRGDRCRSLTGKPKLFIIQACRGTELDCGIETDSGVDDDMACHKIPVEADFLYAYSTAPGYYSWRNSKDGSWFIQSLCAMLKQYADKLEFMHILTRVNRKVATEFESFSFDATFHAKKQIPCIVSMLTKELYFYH
# [17] = target: T4, Sentrin-specific protease 7; assay: SENP7 protease inhibitors, SAR follow-up, biochemical, luminescence, set 2 (AID 588600); type: functional
# [18] = target: T3, Sentrin-specific protease 8; assay: SENP8 protease inhibitors, SAR follow-up, biochemical, luminescence (AID 504501); type: functional
# [19] = target: DNA dC->dU-editing enzyme APOBEC-3A (Homo sapiens, UniProt P31941); assay: SAR analysis of small molecule inhibitors of APOBEC3A DNA Deaminase via a fluorescence-based single-stranded DNA deaminase assay.; type: functional; conditions: read-out: IC50_Mean
# Chain of DNA dC->dU-editing enzyme APOBEC-3A (P31941 whole entry): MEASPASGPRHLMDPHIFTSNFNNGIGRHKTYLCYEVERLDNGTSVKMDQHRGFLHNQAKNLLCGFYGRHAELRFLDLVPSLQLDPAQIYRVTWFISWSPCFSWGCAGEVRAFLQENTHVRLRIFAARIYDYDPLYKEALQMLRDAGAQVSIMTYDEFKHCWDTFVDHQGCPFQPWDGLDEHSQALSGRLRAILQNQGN
# [20] = target: DNA dC->dU-editing enzyme APOBEC-3G (Homo sapiens, UniProt Q9HC16); assay: APOBEC3G deaminase inhibitors, SAR follow-up, biochemical, fluorescence, single-stranded DNA substrate (AID 602136); type: functional; conditions: read-out: IC50_Mean
# Chain of DNA dC->dU-editing enzyme APOBEC-3G (Q9HC16 whole entry): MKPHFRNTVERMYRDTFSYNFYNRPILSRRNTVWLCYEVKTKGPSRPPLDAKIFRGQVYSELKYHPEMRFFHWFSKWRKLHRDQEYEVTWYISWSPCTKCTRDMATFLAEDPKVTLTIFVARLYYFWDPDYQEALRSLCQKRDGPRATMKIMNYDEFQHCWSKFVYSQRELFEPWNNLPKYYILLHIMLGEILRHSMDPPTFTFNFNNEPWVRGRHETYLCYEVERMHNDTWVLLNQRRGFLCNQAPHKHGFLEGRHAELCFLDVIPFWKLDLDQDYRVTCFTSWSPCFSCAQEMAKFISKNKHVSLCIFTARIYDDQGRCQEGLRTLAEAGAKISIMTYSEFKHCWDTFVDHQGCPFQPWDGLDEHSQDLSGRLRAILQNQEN
# [21] = THP-1 cell cytotoxicity, dose response, cytotoxicity control, set 3 (AID 504852); type: functional; conditions: Mycobacterium tuberculosis
# [22] = THP-1 cell cytotoxicity, cytotoxicity control, set 4 (AID 504911); type: functional; conditions: Mycobacterium tuberculosis
# [23] = Vero cell cytotoxicity, dose response, cytotoxicity control for M. tuberculosis growth inhibitor project, Vero cells, purified and synthesized compounds, set 4 (AID 504854); type: functional; conditions: Mycobacterium tuberculosis
# [24] = target: Voltage-gated inwardly rectifying potassium channel KCNH2 (Homo sapiens, UniProt Q12809); conditions: Potency;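 note: confirmatory quantitative high-throughput screen measuring inhibition of hERG channel activity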
# Chain of Glycogen synthase kinase-3 alpha (P49840 whole entry): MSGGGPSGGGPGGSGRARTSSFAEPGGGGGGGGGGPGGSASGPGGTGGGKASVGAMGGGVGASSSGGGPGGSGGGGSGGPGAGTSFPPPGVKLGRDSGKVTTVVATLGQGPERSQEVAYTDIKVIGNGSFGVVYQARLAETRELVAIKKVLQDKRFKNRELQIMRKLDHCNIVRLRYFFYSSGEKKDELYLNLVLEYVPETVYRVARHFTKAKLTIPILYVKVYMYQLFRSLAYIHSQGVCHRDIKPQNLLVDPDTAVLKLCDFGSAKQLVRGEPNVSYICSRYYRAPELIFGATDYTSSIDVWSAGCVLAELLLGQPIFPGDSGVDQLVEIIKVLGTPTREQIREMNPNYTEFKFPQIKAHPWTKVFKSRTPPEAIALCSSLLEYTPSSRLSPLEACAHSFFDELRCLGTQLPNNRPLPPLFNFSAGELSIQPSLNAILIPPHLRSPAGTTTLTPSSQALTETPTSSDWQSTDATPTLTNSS
smiles,measurement,setting,value
CCCn1nc(NC(=O)C(C)C)c2cc3cc(OC)ccc3nc21,AC50,[1],38.5 µM (active)
same,AC50,[2],3.25 µM (active)
CCN(CC)c1ccc(NC(=O)CCS(=O)(=O)c2ccc(Br)cc2)c(C)c1,EC50,[3],5.01 µM (active)
same,IC50,[4],8.64 µM (active)
same,EC50,[5],0.426 µM (active)
same,IC50,[6],3.04 µM (active)
Nc1ccc2nc(-c3ccccc3)cnc2c1,IC50,[7],> 49.7 µM (inactive)
Cc1ccc(S(=O)(=O)N(C)C[C@@H]2Oc3c(NC(=O)Nc4cccc5ccccc45)cccc3C(=O)N([C@@H](C)CO)C[C@H]2C)cc1,AC50,[8],48.3 µM (active)
same,AC50,[9],32.7 µM (active)
same,AC50,[10],31.7 µM (active)
same,AC50,[11],69.6 µM (active)
COc1cc2nc3n(c(=O)c2cc1OC)-c1cc2ccccc2cc1C(=O)NC3Cc1ccccc1 (centres undefined),AC50,[12],11.8 µM (active)
Cc1cccc(-c2noc(/C=C/c3ccccc3)n2)c1,IC50,[13],3.48 µM (active)
same,IC50,[14],4.9 µM (active)
same,IC50,[15],17 µM (active)
same,IC50,[16],11 µM (active)
same,IC50,[17],4.14 µM (active)
same,IC50,[18],> 99 µM (inactive)
CCCCN1CCc2cc(/C=C3\C(=O)NC(=S)N(C4CCCCC4)C3=O)ccc21,IC50,[19],> 99 µM (inactive)
same,IC50,[20],> 99 µM (inactive)
O=C(CSc1nc2c(c(=O)[nH]1)CCCC2)NC1CCCCC1,CC50,[21],> 100 µM (active)
same,CC50,[22],> 100 µM (active)
same,CC50,[23],> 100 µM (active)
Cn1cc(C(=O)OCC2CCN(CCNS(C)(=O)=O)CC2)c2ccccc21,AC50,[24],35.5 µM (inconclusive)
